Reference: article PMC7026418, “The kinase polypharmacology landscape of clinical PARP inhibitors” (Scientific Reports, 2020)
Read-outs that look alike come from different tables or passages of the source.

Experiments:
Experiment in all cases: biochemical
Design in all cases: DiscoveRx KINOMEscan active site-directed competition binding; percent of control kinase bound to immobilised ligand
[1] = molecular target: T1, RSK4(Kin.Dom.2-C-terminal) (Homo sapiens, UniProt Q9UK32)
T1 construct: gene RPS6KA6; Kin.Dom.2-C-terminal

SRPK2 = SRPK2 (Homo sapiens, UniProt P78362)
NEK6 = NEK6 (Homo sapiens, UniProt Q9HC98)
AURKB = AURKB (Homo sapiens, UniProt Q96GD4)
TIE1 = TIE1 (Homo sapiens, UniProt P35590)
AMPK-alpha1 = molecular target: T2, AMPK-alpha1 (Homo sapiens, UniProt Q13131)
T2 construct: gene PRKAA1

MYO3B = molecular target: T3, MYO3B (Homo sapiens, UniProt Q8WXR4)
T3 sequence (Q8WXR4 1-1341): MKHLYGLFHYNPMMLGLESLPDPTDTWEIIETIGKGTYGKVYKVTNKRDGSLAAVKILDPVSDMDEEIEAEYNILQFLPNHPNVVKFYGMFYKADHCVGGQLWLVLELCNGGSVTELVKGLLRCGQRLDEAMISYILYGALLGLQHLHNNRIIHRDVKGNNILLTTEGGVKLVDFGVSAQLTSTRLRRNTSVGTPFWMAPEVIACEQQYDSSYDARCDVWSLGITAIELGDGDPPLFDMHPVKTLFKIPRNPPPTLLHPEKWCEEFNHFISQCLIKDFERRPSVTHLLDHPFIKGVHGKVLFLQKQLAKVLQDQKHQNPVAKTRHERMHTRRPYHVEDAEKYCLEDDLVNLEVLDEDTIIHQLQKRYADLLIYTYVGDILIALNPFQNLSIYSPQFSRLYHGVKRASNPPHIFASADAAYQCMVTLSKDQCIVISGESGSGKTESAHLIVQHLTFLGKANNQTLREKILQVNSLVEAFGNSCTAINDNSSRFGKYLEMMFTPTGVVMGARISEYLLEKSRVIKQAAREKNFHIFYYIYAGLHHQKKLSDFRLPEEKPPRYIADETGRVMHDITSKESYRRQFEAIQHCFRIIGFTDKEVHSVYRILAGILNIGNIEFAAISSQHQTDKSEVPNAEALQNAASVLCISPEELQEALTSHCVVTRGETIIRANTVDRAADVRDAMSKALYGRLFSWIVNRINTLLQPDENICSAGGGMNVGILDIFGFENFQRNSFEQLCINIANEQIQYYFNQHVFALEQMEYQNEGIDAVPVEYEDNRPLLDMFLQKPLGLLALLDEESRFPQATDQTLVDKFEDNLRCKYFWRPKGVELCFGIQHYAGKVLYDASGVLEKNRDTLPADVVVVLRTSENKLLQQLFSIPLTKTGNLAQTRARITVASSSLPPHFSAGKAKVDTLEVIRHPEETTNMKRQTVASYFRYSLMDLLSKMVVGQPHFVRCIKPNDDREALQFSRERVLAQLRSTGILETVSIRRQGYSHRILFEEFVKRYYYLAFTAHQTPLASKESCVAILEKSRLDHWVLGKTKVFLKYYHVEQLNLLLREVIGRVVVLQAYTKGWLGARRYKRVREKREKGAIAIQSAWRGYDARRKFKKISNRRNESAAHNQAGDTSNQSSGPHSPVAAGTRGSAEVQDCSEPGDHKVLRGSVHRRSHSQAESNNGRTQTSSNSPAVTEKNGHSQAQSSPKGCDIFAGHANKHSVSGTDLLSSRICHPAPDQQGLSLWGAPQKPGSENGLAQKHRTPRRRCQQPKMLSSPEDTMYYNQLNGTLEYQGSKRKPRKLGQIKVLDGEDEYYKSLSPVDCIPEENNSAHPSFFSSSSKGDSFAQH

ICK = molecular target: T4, ICK (Homo sapiens, UniProt Q9UPZ9)
T4 construct: gene CILK1
T4 sequence (Q9UPZ9 1-632): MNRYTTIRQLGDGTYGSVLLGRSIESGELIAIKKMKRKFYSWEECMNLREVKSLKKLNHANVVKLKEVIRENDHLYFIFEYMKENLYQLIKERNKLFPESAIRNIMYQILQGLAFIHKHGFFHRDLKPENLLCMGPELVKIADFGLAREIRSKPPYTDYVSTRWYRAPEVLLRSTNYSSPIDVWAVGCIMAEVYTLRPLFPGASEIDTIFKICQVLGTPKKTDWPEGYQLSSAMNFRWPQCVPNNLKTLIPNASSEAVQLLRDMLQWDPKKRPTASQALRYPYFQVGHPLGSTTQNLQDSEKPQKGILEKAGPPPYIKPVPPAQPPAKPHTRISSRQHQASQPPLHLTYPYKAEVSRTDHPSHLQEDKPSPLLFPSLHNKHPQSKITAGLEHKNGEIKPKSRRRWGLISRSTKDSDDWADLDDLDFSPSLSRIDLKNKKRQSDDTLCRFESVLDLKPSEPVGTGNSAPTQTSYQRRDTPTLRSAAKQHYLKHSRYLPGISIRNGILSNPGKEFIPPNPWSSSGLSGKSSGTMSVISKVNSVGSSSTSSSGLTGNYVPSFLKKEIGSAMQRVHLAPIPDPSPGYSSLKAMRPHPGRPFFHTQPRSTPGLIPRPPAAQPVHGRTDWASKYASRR

[2] = read-out: Niraparib (MK-4827) / %Ctrl @ 10000nM
[3] = read-out: Olaparib / %Ctrl @ 10000nM
[4] = read-out: Rucaparib / %Ctrl @ 10000nM, binding competition, % of control
[5] = read-out: Talazoparib (BMN 673) / %Ctrl @ 10000nM

SRPK2, sequence (P78362 whole entry): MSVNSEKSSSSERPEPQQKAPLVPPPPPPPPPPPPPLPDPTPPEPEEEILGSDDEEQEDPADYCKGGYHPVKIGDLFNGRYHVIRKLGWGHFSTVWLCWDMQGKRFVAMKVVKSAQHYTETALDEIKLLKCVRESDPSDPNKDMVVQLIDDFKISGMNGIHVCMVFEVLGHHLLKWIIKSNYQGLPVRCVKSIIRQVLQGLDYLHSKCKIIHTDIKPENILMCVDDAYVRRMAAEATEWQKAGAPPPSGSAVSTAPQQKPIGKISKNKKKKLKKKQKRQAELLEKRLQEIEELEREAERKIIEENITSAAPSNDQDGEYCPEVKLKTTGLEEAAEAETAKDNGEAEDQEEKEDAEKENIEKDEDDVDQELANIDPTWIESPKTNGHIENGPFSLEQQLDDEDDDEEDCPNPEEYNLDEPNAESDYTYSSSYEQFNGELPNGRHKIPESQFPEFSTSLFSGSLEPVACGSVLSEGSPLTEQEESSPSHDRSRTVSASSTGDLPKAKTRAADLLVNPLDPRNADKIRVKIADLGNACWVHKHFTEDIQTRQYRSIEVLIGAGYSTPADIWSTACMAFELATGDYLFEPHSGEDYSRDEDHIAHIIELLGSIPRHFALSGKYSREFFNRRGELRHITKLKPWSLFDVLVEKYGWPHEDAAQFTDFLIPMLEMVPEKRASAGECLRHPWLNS
TIE1, sequence (P35590 whole entry): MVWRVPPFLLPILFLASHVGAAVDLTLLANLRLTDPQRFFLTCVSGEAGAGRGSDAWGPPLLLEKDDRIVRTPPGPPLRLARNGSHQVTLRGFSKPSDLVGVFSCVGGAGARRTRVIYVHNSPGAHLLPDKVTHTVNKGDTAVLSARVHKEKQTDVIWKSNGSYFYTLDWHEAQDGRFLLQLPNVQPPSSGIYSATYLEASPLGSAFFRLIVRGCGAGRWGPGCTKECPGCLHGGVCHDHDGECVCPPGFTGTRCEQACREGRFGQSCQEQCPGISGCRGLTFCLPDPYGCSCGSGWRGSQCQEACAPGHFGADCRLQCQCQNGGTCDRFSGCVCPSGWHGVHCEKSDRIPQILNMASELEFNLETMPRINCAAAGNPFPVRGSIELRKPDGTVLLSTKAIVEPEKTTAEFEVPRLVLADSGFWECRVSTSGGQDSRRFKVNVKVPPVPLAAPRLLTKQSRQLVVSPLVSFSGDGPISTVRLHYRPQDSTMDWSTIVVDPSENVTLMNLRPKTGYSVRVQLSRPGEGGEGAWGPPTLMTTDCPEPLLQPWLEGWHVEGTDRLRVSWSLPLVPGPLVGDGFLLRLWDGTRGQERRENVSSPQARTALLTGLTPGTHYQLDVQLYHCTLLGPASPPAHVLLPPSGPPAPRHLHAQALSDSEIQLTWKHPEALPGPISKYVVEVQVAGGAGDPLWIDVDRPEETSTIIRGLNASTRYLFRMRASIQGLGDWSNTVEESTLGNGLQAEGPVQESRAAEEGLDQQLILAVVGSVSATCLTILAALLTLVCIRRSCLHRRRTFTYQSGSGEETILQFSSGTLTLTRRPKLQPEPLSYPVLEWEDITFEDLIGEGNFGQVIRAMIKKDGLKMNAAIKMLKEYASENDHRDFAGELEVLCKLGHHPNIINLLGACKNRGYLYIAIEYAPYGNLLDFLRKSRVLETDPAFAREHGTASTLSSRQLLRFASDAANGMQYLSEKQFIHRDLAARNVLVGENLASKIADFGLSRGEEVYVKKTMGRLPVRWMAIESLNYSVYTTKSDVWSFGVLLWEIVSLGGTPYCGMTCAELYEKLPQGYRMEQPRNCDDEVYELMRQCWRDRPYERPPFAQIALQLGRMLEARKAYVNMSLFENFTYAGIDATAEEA
T2 sequence (Q13131 whole entry): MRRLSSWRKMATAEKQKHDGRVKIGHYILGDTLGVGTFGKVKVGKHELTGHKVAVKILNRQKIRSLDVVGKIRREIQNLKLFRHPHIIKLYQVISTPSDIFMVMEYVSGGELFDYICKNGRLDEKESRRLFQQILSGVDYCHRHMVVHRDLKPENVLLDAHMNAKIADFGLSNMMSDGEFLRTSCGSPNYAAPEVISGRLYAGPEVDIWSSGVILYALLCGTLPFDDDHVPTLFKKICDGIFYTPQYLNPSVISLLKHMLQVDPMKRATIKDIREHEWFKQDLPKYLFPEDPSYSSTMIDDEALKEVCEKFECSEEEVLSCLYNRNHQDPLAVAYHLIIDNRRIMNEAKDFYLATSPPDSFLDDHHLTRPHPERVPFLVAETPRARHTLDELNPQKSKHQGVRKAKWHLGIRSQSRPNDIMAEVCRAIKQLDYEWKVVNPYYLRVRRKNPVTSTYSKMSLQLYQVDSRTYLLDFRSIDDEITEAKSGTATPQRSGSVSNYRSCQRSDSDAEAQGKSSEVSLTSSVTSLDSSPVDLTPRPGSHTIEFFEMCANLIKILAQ
NEK6, sequence (Q9HC98 whole entry): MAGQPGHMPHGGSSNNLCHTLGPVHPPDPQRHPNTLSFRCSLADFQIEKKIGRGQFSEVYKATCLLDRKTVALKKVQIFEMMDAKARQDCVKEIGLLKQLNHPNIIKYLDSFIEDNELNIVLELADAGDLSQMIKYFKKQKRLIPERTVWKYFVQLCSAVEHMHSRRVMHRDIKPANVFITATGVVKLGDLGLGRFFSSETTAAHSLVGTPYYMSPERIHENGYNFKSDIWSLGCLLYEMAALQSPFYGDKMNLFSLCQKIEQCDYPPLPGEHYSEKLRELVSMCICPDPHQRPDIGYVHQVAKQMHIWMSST
AURKB, sequence (Q96GD4 whole entry): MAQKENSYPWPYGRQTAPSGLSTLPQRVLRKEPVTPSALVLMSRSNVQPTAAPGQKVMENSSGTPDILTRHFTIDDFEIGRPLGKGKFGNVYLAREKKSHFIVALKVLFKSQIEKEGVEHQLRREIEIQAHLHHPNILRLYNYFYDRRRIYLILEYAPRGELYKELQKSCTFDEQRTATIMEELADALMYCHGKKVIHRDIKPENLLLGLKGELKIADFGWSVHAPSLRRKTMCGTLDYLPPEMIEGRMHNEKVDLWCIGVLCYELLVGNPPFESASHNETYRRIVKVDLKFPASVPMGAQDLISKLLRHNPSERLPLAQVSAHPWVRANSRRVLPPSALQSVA
T1 sequence (Q9UK32 whole entry): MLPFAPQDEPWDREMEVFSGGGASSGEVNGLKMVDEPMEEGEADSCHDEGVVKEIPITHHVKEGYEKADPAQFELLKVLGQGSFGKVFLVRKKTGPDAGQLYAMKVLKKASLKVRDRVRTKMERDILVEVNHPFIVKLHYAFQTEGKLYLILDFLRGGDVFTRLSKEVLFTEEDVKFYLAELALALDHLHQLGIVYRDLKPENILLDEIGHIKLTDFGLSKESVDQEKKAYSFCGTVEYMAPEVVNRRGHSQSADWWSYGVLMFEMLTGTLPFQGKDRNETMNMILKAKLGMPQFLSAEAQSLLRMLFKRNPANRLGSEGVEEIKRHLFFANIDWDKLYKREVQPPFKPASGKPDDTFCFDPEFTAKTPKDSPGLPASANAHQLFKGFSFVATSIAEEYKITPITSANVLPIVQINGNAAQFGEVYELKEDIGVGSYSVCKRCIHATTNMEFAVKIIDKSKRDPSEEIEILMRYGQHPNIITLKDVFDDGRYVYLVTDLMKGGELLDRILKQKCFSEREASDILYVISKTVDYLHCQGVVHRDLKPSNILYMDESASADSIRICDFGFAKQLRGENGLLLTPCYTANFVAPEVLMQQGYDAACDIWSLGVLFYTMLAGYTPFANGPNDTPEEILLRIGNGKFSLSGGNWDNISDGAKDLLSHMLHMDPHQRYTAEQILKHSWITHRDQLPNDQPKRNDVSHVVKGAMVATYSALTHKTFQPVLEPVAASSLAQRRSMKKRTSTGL

`NC(=O)c1cccc2cn(-c3ccc([C@@H]4CCCNC4)cc3)nc12` [Niraparib] was tested, and the percent of control binding at 10 µM [1, 2] was 100%, the percent of control binding at 10 µM (SRPK2; [2]) was 100% and the percent of control binding at 10 µM (NEK6; [2]) was 100%. The percent of control binding at 10 µM (AURKB; [2]) was 8.1%, the percent of control binding at 10 µM (TIE1; [2]) was 87% and the percent of control binding at 10 µM (AMPK-alpha1; [2]) was 77%. The percent of control binding at 10 µM (MYO3B; [2]) was 56% and the percent of control binding at 10 µM (ICK; [2]) was 63%.
With `O=C(c1cc(Cc2n[nH]c(=O)c3ccccc23)ccc1F)N1CCN(C(=O)C2CC2)CC1` [Olaparib] the percent of control binding at 10 µM [1, 3] was 92%, the percent of control binding at 10 µM (SRPK2; [3]) was 86% and the percent of control binding at 10 µM (NEK6; [3]) was 96%. The percent of control binding at 10 µM (AURKB; [3]) was 100%, the percent of control binding at 10 µM (TIE1; [3]) was 96% and the percent of control binding at 10 µM (AMPK-alpha1; [3]) was 98%. It also gave a percent of control binding at 10 µM (MYO3B; [3]) of 75% and a percent of control binding at 10 µM (ICK; [3]) of 92%.
With `CNCc1ccc(-c2[nH]c3cc(F)cc4c3c2CCNC4=O)cc1` [Rucaparib] the percent of control binding at 10 µM [1, 4] was 82%, the percent of control binding at 10 µM (SRPK2; [4]) was 68% and the percent of control binding at 10 µM (NEK6; [4]) was 89%. It also gave a percent of control binding at 10 µM (AURKB; [4]) of 100%, a percent of control binding at 10 µM (TIE1; [4]) of 92% and a percent of control binding at 10 µM (AMPK-alpha1; [4]) of 92%. For the same compound, the percent of control binding at 10 µM (MYO3B; [4]) was 62% and the percent of control binding at 10 µM (ICK; [4]) was 64%.
`Cn1ncnc1[C@H]1c2n[nH]c(=O)c3cc(F)cc(c23)N[C@@H]1c1ccc(F)cc1` [Talazoparib] gave a percent of control binding at 10 µM [1, 5] of 97%, a percent of control binding at 10 µM (SRPK2; [5]) of 100% and a percent of control binding at 10 µM (NEK6; [5]) of 99%. It also gave a percent of control binding at 10 µM (AURKB; [5]) of 73%, a percent of control binding at 10 µM (TIE1; [5]) of 100% and a percent of control binding at 10 µM (AMPK-alpha1; [5]) of 100%. The percent of control binding at 10 µM (MYO3B; [5]) was 97% and the percent of control binding at 10 µM (ICK; [5]) was 71%.
